US9192601B2, “Methods for enhancing muscle performance and tone” (Salk Institute for Biological Studies, priority 2006, dated 2015)

Tests used:
quadriceps muscle = test: Microarray analysis of quadriceps (Affymetrix mouse genome 430A 2.0); format: in vivo
p44/42 MAPK = test: Western blot of phospho-p44/42 MAPK in quadriceps; format: in vivo, mouse; conditions: sedentary or trained muscles
Text: Exercise training is known to activate kinases, such as p44/42 MAPK and AMPK, which regulate gene expression in skeletal muscle (Chen et al., Diabetes, 52:2205-12, 2003; Goodyear et al., Am. J. Physiol, 271:[…]-8, 1996). AMPK affects skeletal muscle gene expression and oxidative metabolism (Chen et al., Diabetes. 52: 2205-12, 2003, Reznick et al., J. Physiol. 574: 33-9, 2006). The interaction between exercise-regulated kinases and PPARδ signaling is described in this Example. The levels of phospho-p44/42 MAPK and phospho-AMPK a subunit and total AMPK were determined in protein homogenates of quadriceps muscle by Western blot. Antibodies specific for phospho-p44/42 MAPK, phospho- and total-AMPK αl antibodies were obtained from Cell Signaling. The phospho-specific AMPK αl antibody recognizes the key activating threonine in the activation loop.

[1] = Exercise effect in healthy adult human subjects (Example 9); format: in vivo; conditions: 1 to 20 mg per day oral with aerobic exercise
Description: Healthy adult human subjects perform aerobic exercise (e.g., running) for at least 30 minutes (e.g., 30-90 minutes) for at least 3-4 days per week (e.g., 3-7 days per week) for at least 2 weeks (e.g., at least 4-12 weeks). The exercise is performed at 40%-50% maximal heart rate, […] maximal heart rate, 60%-70% maximal heart rate, or 75%-80% maximal heart rate, where maximum heart rate for a human subject is calculated as: 220 bps−(age of the subject). […] Subjects can continue to perform aerobic exercise while receiving GW1516. […] The exercise effect achieved in the treated subjects (e.g., running endurance) can be compared to such an effect in untreated subjects. Exercise effect can be measured using methods known in the art, such as measuring aerobic or running endurance (for example measuring distance run until exhaustion or amount of time to run a particular distance). In some instances, the exercise effect of interest is increased in treated subjects by at least 5%, such as at least 10% as compared to untreated subjects.

[2] = GW + Tr: GW1516 + exercise training, quadriceps
[3] = GW + Tr: GW1516 + exercise training, quadriceps, listed as GW
[4] = GW: GW1516 alone, sedentary, quadriceps, — = not regulated

Cyp2e1 expression (quadriceps muscle; [2]): 2.941
Compound: Cc1cc(SCc2sc(-c3ccc(C(F)(F)F)cc3)nc2C)ccc1OCC(=O)O [GW1516, (2-methyl-4(((4-methyl-2-(4-trifluoromethylphenyl)-1,3-thiazol-5-yl)methyl)sulfanyl)phenoxy)acetic acid]
number of genes regulated in quadriceps (quadriceps muscle; GW1516 treatment alone): 96 genes
1810073N04Rik expression (quadriceps muscle; [2]): 2.326
2310076L09Rik expression (quadriceps muscle; [2]): 1.868
Abcb1a expression (quadriceps muscle; [2]): 10.322
Acaa2 expression (quadriceps muscle; [2]): 1.926
Acadl expression (quadriceps muscle; [2]): 2.549
Acat2 expression (quadriceps muscle; [2]): 1.625
Acly expression (quadriceps muscle; [2]): 2.606
Acp5 expression (quadriceps muscle; [2]): 3.91
Adfp (adipose differentiation related protein) expression (quadriceps muscle; [2]): 2.009
Adipoq expression (quadriceps muscle; [2]): 3.082
Adrb3 expression (quadriceps muscle; [2]): 3.83
Aldh1a7 expression (quadriceps muscle; [2]): 3.862
Angptl4 expression (quadriceps muscle; [2]): 5.495
Aplp2 expression (quadriceps muscle; [2]): 1.937
Arcn1 expression (quadriceps muscle; [2]): 1.617
Asb15 expression (quadriceps muscle; [2]): 1.78
Atf3 expression (quadriceps muscle; [2]): 1.802
BC054059 expression (quadriceps muscle; [2]): 5.08
Btg2 expression (quadriceps muscle; [2]): 1.601
C530043G21Rik expression (quadriceps muscle; [2]): 1.5
Car3 expression (quadriceps muscle; [2]): 2.339
Cat expression (quadriceps muscle; [2]): 1.82
Cd36 expression (quadriceps muscle; [2]): 1.584
Cdo1 expression (quadriceps muscle; [2]): 3.266
Cebpa expression (quadriceps muscle; [2]): 2.168
Cfd expression (quadriceps muscle; [2]): 2.828
Cidea expression (quadriceps muscle; [2]): 49.625
Cidec expression (quadriceps muscle; [2]): 4.771
Clcn5 expression (quadriceps muscle; [2]): 2.333
Cldn5 expression (quadriceps muscle; [2]): 1.545
Cpt1a expression (quadriceps muscle; [2]): 2.753
Crybb1 expression (quadriceps muscle; [2]): 2.457
D4Wsu53e expression (quadriceps muscle; [2]): 1.586
Dbi expression (quadriceps muscle; [2]): 1.936
Dgat2 expression (quadriceps muscle; [2]): 2.784
Dnajb1 expression (quadriceps muscle; [2]): 3.59
Dusp7 expression (quadriceps muscle; [2]): 1.661
Dync1i2 expression (quadriceps muscle; [2]): 1.705
Egr1 expression (quadriceps muscle; [2]): 2.577
Fabp3 expression (quadriceps muscle; [2]): 1.833
Fabp4 expression (quadriceps muscle; [2]): 2.189
Fasn expression (quadriceps muscle; [2]): 6.323
Fbp2 expression (quadriceps muscle; [2]): 2.808
Fos expression (quadriceps muscle; [2]): 3.9
Gpam expression (quadriceps muscle; [2]): 2.207
Gpiap1 expression (quadriceps muscle; [2]): 1.83
Hba-a1 expression (quadriceps muscle; [2]): 1.632
Hbb-b2|Hbb-y expression (quadriceps muscle; [2]): 1.626
Hip1r expression (quadriceps muscle; [2]): 1.75
Hipk3 expression (quadriceps muscle; [2]): 1.694
Hp expression (quadriceps muscle; [2]): 1.679
Hsd17b12 expression (quadriceps muscle; [2]): 2.376
Hsp90aa1 expression (quadriceps muscle; [2]): 1.513
Hspa1b expression (quadriceps muscle; [2]): 8.845
Hspa9a expression (quadriceps muscle; [2]): 1.61
Ifi27 expression (quadriceps muscle; [2]): 1.714
Igf2 expression (quadriceps muscle; [2]): 1.635
Igfbp5 expression (quadriceps muscle; [2]): 1.772
Il6st expression (quadriceps muscle; [2]): 1.972
Junb expression (quadriceps muscle; [2]): 1.792
Klf3 expression (quadriceps muscle; [2]): 1.901
Ldhb expression (quadriceps muscle; [2]): 2.541
Lig3 expression (quadriceps muscle; [2]): 2.693
Lipe expression (quadriceps muscle; [2]): 3.032
Lmx1a expression (quadriceps muscle; [2]): 4.106
Lpl expression (quadriceps muscle; [2]): 1.659
Mb expression (quadriceps muscle; [2]): 1.578
Mgl1 / Mgll (monoglyceride lipase) expression (quadriceps muscle; [2]): 1.907
Mgst1 expression (quadriceps muscle; [2]): 1.916
Mlycd expression (quadriceps muscle; [2]): 1.781
Mpv17l expression (quadriceps muscle; [2]): 1.988
Mybph expression (quadriceps muscle; [2]): 1.578
Myh2 expression (quadriceps muscle; [2]): 2.194
Neurl expression (quadriceps muscle; [2]): 1.941
Nle1 expression (quadriceps muscle; [2]): 1.831
Nr1d2 expression (quadriceps muscle; [2]): 1.794
Nr4a2 expression (quadriceps muscle; [2]): 1.776
Pck1 expression (quadriceps muscle; [2]): 3.518
Pdk4 expression (quadriceps muscle; [2]): 2.27
Ppp2r1b expression (quadriceps muscle; [2]): 2.509
Ptplb expression (quadriceps muscle; [2]): 2.38
Rab5b expression (quadriceps muscle; [2]): 1.603
Rbbp4 expression (quadriceps muscle; [2]): 2.865
Rbp4 expression (quadriceps muscle; [2]): 2.065
Retn expression (quadriceps muscle; [2]): 4.114
Rpol-4 expression (quadriceps muscle; [2]): 2.498
Rragd expression (quadriceps muscle; [2]): 2.101
Rtbdn expression (quadriceps muscle; [2]): 2.32
Scd1 expression (quadriceps muscle; [2]): 6.494
Scd2 expression (quadriceps muscle; [2]): 1.849
Serpina1a expression (quadriceps muscle; [2]): 0.396
Serpinf1 expression (quadriceps muscle; [2]): 7.765
Slc1a5 expression (quadriceps muscle; [2]): 1.939
Slc25a20 expression (quadriceps muscle; [2]): 1.865
Slc27a1 expression (quadriceps muscle; [2]): 3.58
Sln expression (quadriceps muscle; [2]): 0.363
Sod3 expression (quadriceps muscle; [2]): 1.606
Surf4 expression (quadriceps muscle; [2]): 2.091
Svs5 expression (quadriceps muscle; [2]): 0.095
Tgfbr2 expression (quadriceps muscle; [2]): 2.13
Thrsp expression (quadriceps muscle; [2]): 2.685
Tkt expression (quadriceps muscle; [2]): 2.256
Tpcn1 expression (quadriceps muscle; [2]): 2.842
Trf expression (quadriceps muscle; [2]): 1.907
Trim35 expression (quadriceps muscle; [2]): 1.856
Ucp3 expression (quadriceps muscle; [2]): 2.943
Wnt7b expression (quadriceps muscle; [2]): 4.449
Ywhag expression (quadriceps muscle; [2]): 1.87
Zfp261 expression (quadriceps muscle; [2]): 1.847
erythroid differentiation regulator 1 expression (quadriceps muscle; [2]): 0.619
Acly expression (quadriceps muscle; [3]): 2.458
Cat expression (quadriceps muscle; [3]): 1.728
Hsp90aa1 expression (quadriceps muscle; [3]): 1.455
Slc25a20 expression (quadriceps muscle; [3]): 1.704
Ankrd1 expression (quadriceps muscle; [4]): 4.235
Cryab expression (quadriceps muscle; [4]): 1.561
Crygf expression (quadriceps muscle; [4]): 1.801
Dnaja4 expression (quadriceps muscle; [4]): 1.756
Hspb1 expression (quadriceps muscle; [4]): 1.815
Hspb7 expression (quadriceps muscle; [4]): 3.414
Mt1 expression (quadriceps muscle; [4]): 2.364
Mt2 expression (quadriceps muscle; [4]): 2.151
Smad3 expression (quadriceps muscle; [4]): 1.841
Tnfrsf12a expression (quadriceps muscle; [4]): 1.759
number of genes regulated in quadriceps (quadriceps muscle; combination of GW1516 and exercise): 130 genes
activation of p44/42 (p44/42 MAPK): failed to activate
increase of exercise effect vs untreated subjects [1]: at least 5%
